Assay [1] relates to ex vivo osteoarthritic cartilage explants. The experiment in a line: Ex vivo human osteoarthritic cartilage defect repair with fibrin-ECM constructs or pellets. Format: cell-based. The following applies: implanted as hydrogel or pellets, 3 weeks, serum-free chondrogenic medium with TGFβ3 10 ng/ml. Here is the method: Monolayer cultured ES-MSC were suspended in a hydrogel wafer composed of collagen II (Innovative Research Inc. Novi, MI), hyaluronate (Supartz FX sodium hyaluronate, Seikagaku Corp. Tokyo, Japan), chondroitin sulfate (Sigma-Aldrich) and fibrin (Baxter Healthcare, Deerfield, IL) at a density of 20×10^6 cells per ml. The fibrinogen and thrombin components were prepared separately. To each fibrinogen component, 2 mg/ml sodium hyaluronate, 2 mg/ml chondroitin sulfate and 6 mg/ml collagen II was added (2× concentration of final). Cells were added to the thrombin component at a density of 40×10^6 cells per ml. Thrombin and fibrinogen components in individual syringes were attached to a Baxter DUO mixing syringe and extruded to form the coagulated constructs. The constructs were either directly implanted into ex vivo cartilage tissue or coagulated in 6 well tissue culture plates for 4 to 8 minutes before 4-6 ml of chondrogenic medium was added. To prevent shrinkage of the constructs during culture, the gels were held on AdminPatch microneedle arrays (AdminMed, Sunnyvale, CA) for the duration of their culture.
Osteochondral tissues were obtained from patients ranging between 60 to 70 years of age undergoing total knee arthroplasty within 4-6 hours of surgery (approved by Scripps Institutional Review Board) as previous described. Cartilage disks (6 mm in diameter and ~2-3 mm thick) were harvested from the osteochondral specimens using a sterile dermal punch. The cartilage tissue was cultured in medium consisting of DMEM (Mediatech Inc., Manassas, VA) supplemented with 10% calf serum (Omega Scientific Inc., Tarzana, CA) and 1% Penicillin-Streptomycin-Gentamycin (Life Technologies, Carlsbad, CA). Cartilage disks were maintained in 6-well plates (2-4 per well) in 8 ml medium for 72 hours before creation of the surgical defect. A flame-sterilized stainless-steel burr was used create defects approximately 2×2 mm wide and 0.5 to 1 mm deep. These defects were filled with pellets or hydrogel constructs trimmed to size using 2 mm dermal biopsy punches. […]

A further assay has as its system HADC100 ESC. The experiment in a line: Gene expression of ES-MSC in monolayer culture. The following applies: comparison of ALK5 inhibitors. It counts as cell-based, human. Here is the method: An overview of the differentiation process is provided in FIG. 1, panel K. To create cell clusters or embryoid bodies of uniform size, ESCs were removed from CellStart culture using Accutase® for 2-5 minutes until single cells were observed. Cells (2.5-3×10^5 cells per ml) were suspended in StemPro human ESC serum free medium (ThermoFisher) with 10 μM Y-27632 (EMD Chemicals, Gibbstown, NJ) and 40 ng/ml FGF (Life Technologies, Carlsbad, CA) in a 125 ml spinner culture flask (Corning Inc., Corning, NY) on a magnetic stirrer (CimarecTM Biosystem Slow-Speed Stirrer, ThermoFisher) at 70 rpm for 24 hours at 37° C. with 5% CO2 to form small cell clusters (minimum total cells was 7.5×10^6 in 30 ml). After 24 hours, the cell clusters were suspended at 2.5-3×10^5 cells per ml in ultra-low adherent 6 well plates (Corning) in […] free medium (ThermoFisher) supplemented with 2 mM L-glutamine (ThermoFisher Scientific), 50 μg/ml Ascorbic acid (Stemcell Technologies, Vancouver, Canada) and 1.8 μl/ml ITS-G (100× Insulin-Transferrin-Selenium; ThermoFisher); termed as “complete SP-34 medium”. […] Expression of the following genes was quantified POU5F1/OCT4 and SOX2 (for pluripotency); FOXA1 and SOX17 (for endoderm); NES and PAX6 (for ectoderm); NKX2-5, MSX1, NCAM1, and SOX9 (for mesoderm); ITGB1/CD29 (for MSC phenotype); and COL1A1, COL2A1, COL10A1, COMP, ACAN, and SOX9 and RUNX2 (for chondrogenesis). […]

A further assay concerns HUES9 ESC. The following applies: 10 μM SB431542, fibronectin, monolayer with 10% FBS; cited from earlier work.

`Cc1cccc(-c2[nH]c(C(C)(C)C)nc2-c2ccc3nccnc3c2)n1` [SB525334]: the “cartilaginous neo-tissue formation in ex vivo osteoarthritic explants” value in assay [1] was “formed equally well”.
Regarding `NC(=O)c1ccc(-c2nc(-c3ccc4c(c3)OCO4)c(-c3ccccn3)[nH]2)cc1` [SB431542], the “generating mesoderm markers (NCAM1, SOX9) and increasing COL2A1 expression” value in the assay on HADC100 ESC is on record as “superior”. The “cartilaginous neo-tissue formation in ex vivo osteoarthritic explants” value in assay [1] is listed as “formed equally well”. In the assay with HUES9 ESC, the “enrichment for MSC markers CD44, CD73, CD146, and CD166” value is reported as “highly enriched”.

Values taken from patent US20260242738A1, “ALK5 INHIBITORS FOR EFFICIENT DERIVATION OF MESENCHYMAL STEM CELLS FROM EMBRYONIC STEM CELLS” (SCRIPPS HEALTH, priority 2022, published 2026).
